Series [1] in a line: Ratio of drug level in brain to plasma in rat. The format is ADME. The following applies: read-out: BPR.
The nature of series [2]: Ratio of AUC (0 to 3 hrs) in FVB mouse brain to plasma at 1 mg/kg, iv by LC-MS/MS analysis. The format is ADME, organism-based. The following applies: read-out: Ratio AUC.
For series [3], the system named is Rattus norvegicus. As to the kind of experiment: In vivo inhibition of Plk2-mediated phosphorylation of alpha-synuclein in Sprague-Dawley rat brain assessed as reduction in pS129-alpha-synuclein levels at 200 mg/kg, po administered as single dose after 6 hrs by sandwich ELISA relative to control. The format is functional.
A short description of series [4]: Ratio of drug level in Sprague-Dawley rat brain to plasma at 100 mg/kg, po administered as single dose after 6 hrs by LC-MS/MS analysis. The format is ADME, organism-based. The following applies: read-out: BPR.
The nature of series [5]: Ratio of drug level in Sprague-Dawley rat brain to plasma at 200 mg/kg, po administered as single dose after 6 hrs by LC-MS/MS analysis. The following applies: read-out: BPR. The format is ADME, organism-based.
In series [6] the test system is Rattus norvegicus. In words: In vivo inhibition of Plk2-mediated phosphorylation of alpha-synuclein in Sprague-Dawley rat brain assessed as reduction in pS129-alpha-synuclein levels at 100 mg/kg, po administered as single dose after 6 hrs by sandwich ELISA relative to control. The format is functional.
Series [7] concerns MDR1. In words: Efflux ratio of apparent permeability in MDCK2-MDR1. The format is ADME, cell-based, Canis lupus familiaris. The following applies: dog, MDCK-MDR1.
The nature of series [8]: Unbound Cmax in C57BL/6J mouse brain at 10 mg/kg, sc. The format is ADME, organism-based. The following applies: in vivo.
For series [9], the system named is Mus musculus. As to the kind of experiment: In vivo target occupancy at CK1delta in C57BL/6J mouse CNS at 10 mg/kg, sc. The format is functional.
Series [10] deals with Mus musculus. As to the kind of experiment: In vivo target occupancy at CK1epsilon in C57BL/6J mouse CNS at 10 mg/kg, sc. The format is functional.
Series [11] relates to MDR1. As to the kind of experiment: Efflux ratio of apparent permeability in MDCK cells expressing human MDR1. The format is ADME, cell-based, Canis lupus familiaris. The following applies: dog.
Series [12] is described as follows: Ratio of drug level in brain to plasma in Sprague-Dawley rat at 5 mg/kg, po after 3 hrs by LC-MS/MS analysis. The format is ADME, organism-based. The following applies: read-out: BPR.
Series [13] can be described thus: Efflux ratio of apparent permeability in human Caco2 cells by HPLC-MS/MS analysis. The format is ADME, cell-based. The following applies: Caco-2. Background: Passage across Caco-2 layers is used to estimate intestinal permeability.
A short description of series [14]: Drug uptake in mouse CSF up to 20 mg/kg/day, po after 30 to 60 mins by LC/MS analysis relative to brain. The format is ADME, organism-based, Cerebrospinal fluid. The following applies: in vivo.
Series [15] in a line: Ratio of drug level in plasma to CSF in Alzheimer's disease patient at 50 to 125 mg, po qd for 4 weeks measured 23 to 28 hrs post last dose by LC/MS analysis. The format is ADME, organism-based. The following applies: human, in vivo.
The nature of series [16]: Drug uptake in mouse brain at 5 mg/kg/day, po after 30 to 60 mins by LC/MS analysis. The following applies: in vivo, read-out: Drug uptake. The format is ADME, organism-based.
The nature of series [17]: Drug uptake in mouse brain up to 20 mg/kg/day, po after 30 to 60 mins by LC/MS analysis relative to plasma. The format is ADME, organism-based.
Series [18] is described as follows: Ratio of drug level in brain to plasma in C57BL6 mouse at 30 mg/kg, po after 1 hr by LC/MS analysis. The following applies: read-out: BPR. The format is ADME, organism-based.

Structures are written as SMILES.

This is an account of results in ChEMBL document CHEMBL4118171, “Brain penetrant kinase inhibitors: Learning from kinase neuroscience discovery” (Bioorg Med Chem Lett, 2018).

For the molecule `CN(CCNc1ccn2ncc(-c3ccc(C(N)=O)cc3)c2n1)C(=O)OC(C)(C)C`, in series [1], the Kp turned out to be 0.007.
In the case of `CC[C@@]12COCCN1c1nc(-n3ccnc3-c3ccccc3)ncc1N(C)C2=O`, in [2], the Kp came out at 0.3. Besides, in [3], the inhibition in vivo (commonly the share of the control response that was lost under treatment) at 200 mg/kg came out at 41.4%. The Kp at 6 h in [4] is 0.42; in series [5], 0.46. Besides, in [6], the inhibition in vivo at 100 mg/kg was found to be 34.5%.
With `CN1C(=O)[C@@H](NC(=O)c2nnc(Cc3ccccc3)o2)COc2cccnc21`, in series [7], the efflux ratio (usually a quotient of directional permeabilities that is used to spot active efflux) is less than 2.
As to `COc1ncccc1-c1cnn2ccc(N3CCN(C(=O)OC(C)C)CC3)nc12`, in [1], the Kp was greater than 2.
In turn, `Nc1nccc(-c2c(-c3ccc(F)cc3)ncn2C2CCN(Cc3ccon3)CC2)n1` came in with a fCmax in [8] of 117 nM. The Occ came out at 88% in series [9] and 58% in series [10]. The efflux ratio in [11] was 3.2.
As to `CN1CCN(c2cc(-c3ccncc3)c(-c3ccc4ccccc4c3)nn2)CC1` [MW-150], the Kp at 3 h in series [12] was greater than 0.9. Moreover, the efflux ratio in [13] is 0.9.
On to `CN1CCN(CCOc2cc(OC3CCOCC3)c3c(Nc4c(Cl)ccc5c4OCO5)ncnc3c2)CC1` [SARACATINIB], for which the figures for the Drug uptake in series [14] and in [17] were 35% and 50%, respectively. For the same molecule, the Ratio in series [15] worked out at 0.4. Also, the concentration in series [16] was determined as 50 nM.
With `Cc1ccc(C(=O)NNC(=O)c2c(C)cccc2Cl)cc1C#Cc1cnc2ccccc2c1` [VODOBATINIB], the Kp at 1 h in [18] was 0.4.
